Some results are limits rather than exact numbers.

The target of one test is T1, ALK (Homo sapiens, UniProt Q9UM73).
T1 construct: host or cells: baculovirus expression system
Kind of test: ALK Kinase Assay (ELISA/TRF, PLC-γ substrate). The test is classed as biochemical. Particulars: ALK Kinase Inhibition; read-out: ALK Potency. A digest of the protocol: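 Wells were coated with 10 μg/mL phospholipase C-γ substrate in TBS, and the reaction was started by adding 30 ng/ml ALK enzyme and run at 37° C for 15 minutes. Phosphorylated product was detected with Eu-N1-labeled PT66 antibody, and IC50 values came from sigmoidal variable-slope fits of percent inhibition against log concentration.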
On the technique in general: In an ELISA, binding on a coated surface is turned into a signal by an enzyme label.

Another test concerns the target T2, JAK2 (Homo sapiens, UniProt O60674).
T2 construct: host or cells: baculovirus expression system
The test is described as follows: Recombinant Human JAK2 Kinase Assay (TRF). The format is biochemical. Particulars: JAK2 Kinase Inhibition; read-out: JAK2 Potency. A digest of the protocol: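 Baculovirus-expressed JAK2 (15 ng/ml) phosphorylated a biotinylated 15-mer peptide captured on Neutravidin, in 20 mM HEPES pH 7.2, 0.2 μM ATP, 1 mM MnCl2, 0.1% BSA, 2.5% DMSO final, 20 min at room temperature. Phosphoproduct detected by time-resolved fluorescence with Eu-N1-labelled PY100 antibody.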

T1 sequence (Q9UM73 19-1620): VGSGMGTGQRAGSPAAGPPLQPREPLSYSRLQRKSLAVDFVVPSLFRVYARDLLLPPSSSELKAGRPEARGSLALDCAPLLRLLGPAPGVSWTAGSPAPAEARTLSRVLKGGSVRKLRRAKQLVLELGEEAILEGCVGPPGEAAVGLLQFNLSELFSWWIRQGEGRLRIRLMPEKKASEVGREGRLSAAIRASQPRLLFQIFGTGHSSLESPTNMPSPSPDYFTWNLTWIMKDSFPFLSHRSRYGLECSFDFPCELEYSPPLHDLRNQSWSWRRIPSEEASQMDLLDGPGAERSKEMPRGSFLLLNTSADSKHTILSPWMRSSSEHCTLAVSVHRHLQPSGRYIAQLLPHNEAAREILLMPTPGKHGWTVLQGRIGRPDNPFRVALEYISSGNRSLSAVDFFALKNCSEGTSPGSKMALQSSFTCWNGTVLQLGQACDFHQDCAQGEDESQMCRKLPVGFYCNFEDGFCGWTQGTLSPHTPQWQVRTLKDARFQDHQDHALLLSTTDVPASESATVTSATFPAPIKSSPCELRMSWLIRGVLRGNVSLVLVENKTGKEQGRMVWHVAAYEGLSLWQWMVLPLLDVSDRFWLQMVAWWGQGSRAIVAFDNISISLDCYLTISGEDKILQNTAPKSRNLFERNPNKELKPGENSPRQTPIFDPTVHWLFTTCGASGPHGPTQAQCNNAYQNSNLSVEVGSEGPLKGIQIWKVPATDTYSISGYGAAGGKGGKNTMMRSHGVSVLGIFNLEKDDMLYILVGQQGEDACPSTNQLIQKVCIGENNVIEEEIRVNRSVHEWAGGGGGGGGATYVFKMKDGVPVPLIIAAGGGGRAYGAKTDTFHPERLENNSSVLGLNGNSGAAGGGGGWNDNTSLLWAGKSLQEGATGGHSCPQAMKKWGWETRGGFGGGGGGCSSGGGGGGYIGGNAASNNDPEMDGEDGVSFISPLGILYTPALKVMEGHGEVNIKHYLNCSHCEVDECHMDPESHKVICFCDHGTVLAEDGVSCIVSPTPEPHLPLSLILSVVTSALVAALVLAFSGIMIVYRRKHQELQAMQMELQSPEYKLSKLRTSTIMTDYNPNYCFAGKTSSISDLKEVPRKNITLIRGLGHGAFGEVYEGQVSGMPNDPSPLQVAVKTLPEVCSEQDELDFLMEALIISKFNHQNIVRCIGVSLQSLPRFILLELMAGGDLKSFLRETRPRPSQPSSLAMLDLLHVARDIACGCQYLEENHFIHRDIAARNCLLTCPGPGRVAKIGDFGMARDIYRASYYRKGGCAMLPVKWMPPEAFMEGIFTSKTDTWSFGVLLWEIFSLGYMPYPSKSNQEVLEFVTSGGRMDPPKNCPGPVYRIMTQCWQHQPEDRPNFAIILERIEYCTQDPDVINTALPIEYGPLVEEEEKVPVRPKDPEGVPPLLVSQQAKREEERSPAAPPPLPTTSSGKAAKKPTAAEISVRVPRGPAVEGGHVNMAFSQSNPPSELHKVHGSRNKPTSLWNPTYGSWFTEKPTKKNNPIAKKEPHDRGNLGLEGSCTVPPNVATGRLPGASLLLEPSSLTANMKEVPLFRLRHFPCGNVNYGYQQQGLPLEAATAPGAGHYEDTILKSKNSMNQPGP
T2 sequence (O60674 whole entry): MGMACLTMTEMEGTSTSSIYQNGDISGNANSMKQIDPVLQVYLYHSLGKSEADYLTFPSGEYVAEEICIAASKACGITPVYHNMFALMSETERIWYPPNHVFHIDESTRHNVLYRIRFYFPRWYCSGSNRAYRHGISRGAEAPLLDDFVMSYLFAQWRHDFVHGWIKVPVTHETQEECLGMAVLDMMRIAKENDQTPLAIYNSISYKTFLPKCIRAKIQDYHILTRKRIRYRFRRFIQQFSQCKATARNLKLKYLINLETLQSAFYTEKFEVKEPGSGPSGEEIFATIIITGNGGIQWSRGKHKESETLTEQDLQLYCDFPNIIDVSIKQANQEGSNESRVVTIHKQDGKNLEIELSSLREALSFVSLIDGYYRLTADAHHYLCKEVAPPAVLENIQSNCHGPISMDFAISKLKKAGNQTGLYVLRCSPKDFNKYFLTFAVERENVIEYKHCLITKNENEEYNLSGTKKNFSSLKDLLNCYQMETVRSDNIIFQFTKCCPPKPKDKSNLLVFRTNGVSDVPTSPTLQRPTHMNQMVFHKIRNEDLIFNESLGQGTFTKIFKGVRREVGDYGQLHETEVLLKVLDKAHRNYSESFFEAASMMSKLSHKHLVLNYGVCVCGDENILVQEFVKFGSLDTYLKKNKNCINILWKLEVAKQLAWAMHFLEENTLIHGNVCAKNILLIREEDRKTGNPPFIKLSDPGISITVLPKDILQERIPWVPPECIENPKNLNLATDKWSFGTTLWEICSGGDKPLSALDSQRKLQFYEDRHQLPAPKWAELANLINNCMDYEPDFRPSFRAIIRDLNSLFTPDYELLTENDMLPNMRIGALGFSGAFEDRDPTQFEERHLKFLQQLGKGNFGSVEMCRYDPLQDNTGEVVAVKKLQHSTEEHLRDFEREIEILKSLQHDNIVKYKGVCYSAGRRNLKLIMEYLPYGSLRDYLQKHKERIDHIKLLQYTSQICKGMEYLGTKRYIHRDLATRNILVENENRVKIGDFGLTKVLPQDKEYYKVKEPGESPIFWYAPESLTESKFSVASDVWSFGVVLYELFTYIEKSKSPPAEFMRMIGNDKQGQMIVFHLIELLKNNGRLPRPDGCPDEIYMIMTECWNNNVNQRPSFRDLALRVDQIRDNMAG

As for `CN1CCN(c2ccc(Nc3ncc4ccc(-c5ccccc5CO)n4n3)cc2)CC1` [Example 1504, (2-{2-[4-(4-Methyl-piperazin-1-yl)-phenylamino]-pyrrolo[2,1-f][1,2,4]triazin-7-yl}-phenyl)-methanol], the IC50 on ALK is 100 to 1000 nM; on JAK2, under 100 nM.
Take `COc1ccccc1-c1ccc2cnc(-c3nc4cc(N5CCN(C)CC5)ccc4[nH]3)nn12` [Example 1505, 7-(2-Methoxy-phenyl)-2-[5-(4-methyl-piperazin-1-yl)-1H-benzimidazol-2-yl]-pyrrolo[2,1-f][1,2,4]triazine]: the IC50 at ALK and on JAK2 was 1000 to 10000 nM throughout.
On to `O=S1(=O)CCCN1c1cccc(-c2ccc3cnc(Nc4cccc(-n5cccn5)c4)nn23)c1` [Example 1506, 7-[3-(1,1-Dioxido-1,2-thiazolidin-2-yl)phenyl]-N-[3-(1H-pyrazol-1-yl)phenyl]pyrrolo[2,1-f][1,2,4]triazin-2-amine], for which the values for the IC50 at ALK and on JAK2 were over 10000 nM and under 100 nM, respectively.
For `O=S1(=O)CCCN1c1cccc(-c2ccc3cnc(Nc4ccc5c(c4)CCC(N4CCOCC4)CC5)nn23)c1` (centres unmarked) [Example 1507, 7-[3-(1,1-Dioxido-1,2-thiazolidin-2-yl)phenyl]-N-[7-(morpholin-4-yl)-6,7,8,9-tetrahydro-5H-benzo[7]annulen-2-yl]pyrrolo[2,1-f][1,2,4]triazin-2-amine], the IC50 on ALK was 100 to 1000 nM; at JAK2, under 100 nM.
On to `CC(=O)Nc1cccc(Nc2ncc3ccc(-c4cccc(N5CCCS5(=O)=O)c4)n3n2)c1` [Example 1508, N-[3-({7-[3-(1,1-Dioxido-1,2-thiazolidin-2-yl)phenyl]pyrrolo[2,1-f][1,2,4]triazin-2-yl}amino)phenyl]acetamide], for which the IC50 on ALK was 1000 to 10000 nM; at JAK2, under 100 nM.
As to `CN1CCN(c2cccc(Nc3ncc4ccc(-c5cccc(N6CCCS6(=O)=O)c5)n4n3)c2)CC1` [Example 1509, 7-[3-(1,1-Dioxido-1,2-thiazolidin-2-yl)phenyl]-N-[3-(4-methylpiperazin-1-yl)phenyl]pyrrolo[2,1-f][1,2,4]triazin-2-amine], the IC50 was 100 to 1000 nM at ALK and under 100 nM on JAK2.
In the case of `CC1(C)C(=O)Nc2cc(Nc3ncc4ccc(-c5cccc(N6CCCS6(=O)=O)c5)n4n3)ccc21` [Example 1510, 6-({7-[3-(1,1-Dioxido-1,2-thiazolidin-2-yl)phenyl]pyrrolo[2,1-f][1,2,4]triazin-2-yl}amino)-3,3-dimethyl-1,3-dihydro-2H-indol-2-one], the results for the IC50 on ALK and on JAK2 were 1000 to 10000 nM and under 100 nM, respectively.
`O=S1(=O)CCCN1c1cccc(-c2ccc3cnc(Nc4ccc5nc[nH]c5c4)nn23)c1` [Example 1511, N-(1H-Benzimidazol-6-yl)-7-[3-(1,1-dioxido-1,2-thiazolidin-2-yl)phenyl]pyrrolo[2,14][1,2,4]triazin-2-amine]: the IC50 on ALK is 1000 to 10000 nM; on JAK2, under 100 nM.
For the molecule `NC(=O)CN1CCC(c2ccc(Nc3ncc4ccc(-c5cccc(N6CCCS6(=O)=O)c5)n4n3)cc2)CC1` [Example 1512, 2-{4-[4-({7-[3-(1,1-Dioxido-1,2-thiazolidin-2-yl)phenyl]pyrrolo[2,1-f][1,2,4]triazin-2-yl}amino)phenyl]piperidin-1-yl}acetamide], the IC50 at ALK was 100 to 1000 nM; at JAK2, under 100 nM.
For `COc1ccc(-c2ccc3cnc(Nc4ccc5nc(CN6CCOCC6)[nH]c5c4)nn23)cn1` [Example 1513, [7-(6-Methoxy-pyridin-3-yl)-pyrrolo[2,1-f][1,2,4]triazin-2-yl]-(2-morpholin-4-ylmethyl-3H-benzimidazol-5-yl)-amine], the IC50 at ALK is 1000 to 10000 nM; on JAK2, under 100 nM.
On to `CC(C)(C)NS(=O)(=O)c1cccc(-c2ccc3cnc(Nc4ccc5nc(CN6CCOCC6)[nH]c5c4)nn23)c1` [Example 1514, N-tert-Butyl-3-[2-(2-morpholin-4-ylmethyl-3H-benzimidazol-5-ylamino)-pyrrolo[2,1-f][1,2,4]triazin-7-yl]-benzenesulfonamide], for which the values for the IC50 on ALK and at JAK2 were 100 to 1000 nM and under 100 nM, respectively.
As to `CN1CCN(C(=O)C(F)(F)c2ccc(Nc3ncc4ccc(-c5cccc(S(=O)(=O)NC(C)(C)C)c5)n4n3)cc2)CC1` [Example 1515, N-tert-Butyl-3-(2-{4-[1,1-difluoro-2-(4-methyl-piperazin-1-yl)-2-oxo-ethyl]-phenylamino}-pyrrolo[2,1-f][1,2,4]triazin-7-yl)-benzenesulfonamide], the IC50 on ALK was 100 to 1000 nM; at JAK2 it was under 100 nM.
For the molecule `COc1ccc(-c2ccc3cnc(Nc4ccc(C(F)(F)C(=O)N5CCN(C)CC5)cc4)nn23)cn1` [Example 1516, 2,2-Difluoro-2-{4-[7-(6-methoxy-pyridin-3-yl)-pyrrolo[2,1-f][1,2,4]triazin-2-ylamino]-phenyl}-1-(4-methyl-piperazin-1-yl)-ethanone], the IC50 on ALK was 1000 to 10000 nM; on JAK2, under 100 nM.
For the molecule `CN(c1ccccc1-c1ccc2cnc(Nc3ccc4nc(CN5CCOCC5)[nH]c4c3)nn12)S(C)(=O)=O` [Example 1517, N-Methyl-N-{2-[2-(2-morpholin-4-ylmethyl-3H-benzimidazol-5-ylamino)-pyrrolo[2,1-f][1,2,4]triazin-7-yl]-phenyl}-methanesulfonamide], the IC50 at ALK is 100 to 1000 nM; on JAK2 it was under 100 nM.
Consider `COc1ccccc1-c1ccc2cnc(Nc3ccc4nc(CN5CCOCC5)[nH]c4c3)nn12` [Example 1518, [7-(2-Methoxy-phenyl)-pyrrolo[2,1-f][1,2,4]triazin-2-yl]-(2-morpholin-4-ylmethyl-3H-benzimidazol-5-yl)-amine], for which the IC50 at ALK is 100 to 1000 nM; at JAK2, under 100 nM.
In the case of `COc1ccc(-c2ccc3cnc(Nc4cccc(C5CN(C)CCN5C)c4)nn23)cn1` (centres unmarked) [Example 1519, [3-(1,4-Dimethyl-piperazin-2-yl)-phenyl]-[7-(6-methoxy-pyridin-3-yl)-pyrrolo[2,1-f][1,2,4]triazin-2-yl]-amine], the IC50 on ALK is 1000 to 10000 nM; on JAK2, under 100 nM.
`CC(C)(C)NS(=O)(=O)c1cccc(-c2ccc3cnc(Nc4ccc5nc(CN6CCN(CCO)CC6)[nH]c5c4)nn23)c1` [Example 1520, N-tert-Butyl-3-(2-{2-[4-(2-hydroxy-ethyl)-piperazin-1-ylmethyl]-3H-benzimidazol-5-ylamino}-pyrrolo[2,1-f][1,2,4]triazin-7-yl)-benzenesulfonamide]: the IC50 is 100 to 1000 nM on ALK and under 100 nM on JAK2.
The corresponding values for `CN(c1ccccc1-c1ccc2cnc(Nc3ccc4nc(CN5CCN(CCO)CC5)[nH]c4c3)nn12)S(C)(=O)=O` [Example 1521, N-[2-(2-{2-[4-(2-Hydroxy-ethyl)-piperazin-1-ylmethyl]-3H-benzimidazol-5-ylamino}-pyrrolo[2,1-f][1,2,4]triazin-7-yl)-phenyl]-N-methyl-methanesulfonamide] are 100 to 1000 nM and under 100 nM.
Taken in the same sequence, the figures for `COc1ccccc1-c1ccc2cnc(Nc3ccc4nc(CN5CCN(CCO)CC5)[nH]c4c3)nn12` [Example 1522, 2-(4-{6-[7-(2-Methoxy-phenyl)-pyrrolo[2,1-f][1,2,4]triazin-2-ylamino]-1H-benzimidazol-2-ylmethyl}-piperazin-1-yl)-ethanol] were 100 to 1000 nM and under 100 nM.
In the case of `COc1ccc(-c2ccc3cnc(Nc4ccc5nc(CN6CCN(CCO)CC6)[nH]c5c4)nn23)cn1` [Example 1523, 2-(4-{6-[7-(6-Methoxy-pyridin-3-yl)-pyrrolo[2,1-f][1,2,4]triazin-2-ylamino]-1H-benzimidazol-2-ylmethyl}-piperazin-1-yl)-ethanol], the IC50 on ALK is 1000 to 10000 nM; at JAK2, under 100 nM.
With `CN1CCN(Cc2nc3ccc(Nc4ncc5ccc(-c6cccc(S(=O)(=O)NC(C)(C)C)c6)n5n4)cc3[nH]2)CC1` [Example 1524, N-tert-Butyl-3-{2-[2-(4-methyl-piperazin-1-ylmethyl)-3H-benzimidazol-5-ylamino]-pyrrolo[2,1-f][1,2,4]triazin-7-yl}-benzenesulfonamide], the IC50 was 100 to 1000 nM on ALK and under 100 nM at JAK2.
`CN1CCN(Cc2nc3ccc(Nc4ncc5ccc(-c6ccccc6N(C)S(C)(=O)=O)n5n4)cc3[nH]2)CC1` [Example 1525, N-Methyl-N-(2-{2-[2-(4-methyl-piperazin-1-ylmethyl)-3H-benzimidazol-5-ylamino]-pyrrolo[2,1-f][1,2,4]triazin-7-yl}-phenyl)-methanesulfonamide]: the IC50 at ALK is 100 to 1000 nM; on JAK2, under 100 nM.
As for `COc1ccccc1-c1ccc2cnc(Nc3ccc4nc(CN5CCN(C)CC5)[nH]c4c3)nn12` [Example 1526, [7-(2-Methoxy-phenyl)-pyrrolo[2,1-f][1,2,4]triazin-2-yl]-[2-(4-methyl-piperazin-1-ylmethyl)-3H-benzimidazol-5-yl]-amine], the IC50 at ALK is 100 to 1000 nM; on JAK2, under 100 nM.
The corresponding values for `COc1ccc(-c2ccc3cnc(Nc4ccc5nc(CN6CCN(C)CC6)[nH]c5c4)nn23)cn1` [Example 1527, [7-(6-Methoxy-pyridin-3-yl)-pyrrolo[2,1-f][1,2,4]triazin-2-yl]-[2-(4-methyl-piperazin-1-ylmethyl)-3H-benzimidazol-5-yl]-amine] are 100 to 1000 nM and under 100 nM.
Taken in the same sequence, the figures for `CC(C)(C)NS(=O)(=O)c1cccc(-c2ccc3cnc(Nc4ccc(C5CNCCN5)cc4)nn23)c1` (centres unmarked) [Example 1528, N-tert-Butyl-3-[2-(4-piperazin-2-yl-phenylamino)-pyrrolo[2,1-f][1,2,4]triazin-7-yl]-benzenesulfonamide] were 100 to 1000 nM and under 100 nM.

Source of the values: patent US8471005B2 (Cephalon, Inc., priority 2008, dated 2013).
